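The compound was tested at five concentrations on cells cultured in 96-well plates, with a 48-hour exposure period. GI50 = concentration required for 50% inhibition of growth.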 Activity calls are given as the source filed them. No stated cut-off is given here; in the data, active = GI50 up to about 1.1 µM and inactive = higher.
Assays:
Assay in all cases: NCI tumour cell line growth inhibition, 48 h
ACHN = test system: ACHN
BT-549 = test system: BT-549
DU-145 = test system: DU-145
LOX IMVI = test system: LOX IMVI
M14 = test system: M14
MDA-MB-231 = test system: MDA-MB-231
MDA-N = test system: MDA-N
Malme-3M = test system: Malme-3M
OVCAR-3 = test system: OVCAR-3
RPMI-8226 = test system: RPMI-8226
RXF 393 = test system: RXF 393
SK-MEL-28 = test system: SK-MEL-28
SK-MEL-5 = test system: SK-MEL-5
SK-OV-3 = test system: SK-OV-3
SN12C = test system: SN12C
SNB-19 = test system: SNB-19
TK-10 = test system: TK-10
UACC-257 = test system: UACC-257
MOLT-4 = test system: MOLT-4

Measured: GI50

CCCCOCOc1ccccc1P1(=O)COc2ccccc2OC1
inactive: ACHN 86.7 µM | BT-549 41.5 µM | DU-145 > 100 µM | LOX IMVI > 100 µM | M14 83.9 µM | MDA-MB-231 43.4 µM | MDA-N > 100 µM | Malme-3M > 100 µM | OVCAR-3 68.7 µM | RPMI-8226 87.9 µM | RXF 393 37.8 µM | SK-MEL-28 > 100 µM | SK-MEL-5 > 100 µM | SK-OV-3 > 100 µM | SN12C > 100 µM | SNB-19 > 100 µM | TK-10 20.8 µM | UACC-257 67.3 µM

C=C1c2nc3ccccc3n2C=C(c2ccc(Cl)cc2)N1c1ccc(OCCN2CCOCC2)cc1
inactive: ACHN 34.9 µM | BT-549 39.3 µM | DU-145 49.8 µM | LOX IMVI 11 µM | M14 15.7 µM | MDA-MB-231 62.4 µM | MDA-N 42.2 µM | Malme-3M 52 µM | OVCAR-3 37.2 µM | RPMI-8226 2.91 µM | RXF 393 32.7 µM | SK-MEL-28 28.9 µM | SK-MEL-5 13.4 µM | SK-OV-3 > 100 µM | SN12C > 100 µM | SNB-19 > 100 µM | TK-10 35.9 µM | UACC-257 22.7 µM

O=C1CS(=O)(=O)C(c2cccc(Oc3ccccc3)c2)N1C1CC1 (configuration not stated)
inactive: ACHN 31.2 µM | BT-549 41.7 µM | DU-145 63.2 µM | LOX IMVI 41.7 µM | M14 41.1 µM | MDA-MB-231 75.2 µM | MDA-N 26.7 µM | MOLT-4 30.4 µM | Malme-3M > 100 µM | OVCAR-3 33 µM | RXF 393 22 µM | SK-MEL-28 90.6 µM | SK-MEL-5 18.9 µM | SK-OV-3 33.3 µM | SN12C 46.8 µM | SNB-19 50.1 µM | TK-10 44.7 µM | UACC-257 33.2 µM

O=c1[nH]nc(Cc2ccccc2)n1N=C1CCCCC1
inactive: ACHN > 100 µM | BT-549 > 100 µM | DU-145 > 100 µM | LOX IMVI > 100 µM | M14 > 100 µM | MDA-MB-231 > 100 µM | MDA-N > 100 µM | MOLT-4 > 100 µM | Malme-3M > 100 µM | OVCAR-3 > 100 µM | RPMI-8226 > 100 µM | RXF 393 > 100 µM | SK-MEL-28 > 100 µM | SK-MEL-5 > 100 µM | SN12C > 100 µM | SNB-19 > 100 µM | TK-10 > 100 µM | UACC-257 > 100 µM

Cc1nnc(CC#N)n1NC(=O)CC#N
inactive: ACHN > 100 µM | BT-549 > 100 µM | DU-145 > 100 µM | LOX IMVI > 100 µM | M14 > 100 µM | MDA-MB-231 > 100 µM | MDA-N > 100 µM | MOLT-4 > 100 µM | Malme-3M > 100 µM | OVCAR-3 > 100 µM | RXF 393 > 100 µM | SK-MEL-28 > 100 µM | SK-MEL-5 > 100 µM | SK-OV-3 > 100 µM | SN12C > 100 µM | SNB-19 > 100 µM | TK-10 > 100 µM | UACC-257 > 100 µM

Cn1c2ccccc2c(=S)c2ccccc21
inactive: ACHN > 100 µM | BT-549 > 100 µM | DU-145 > 100 µM | LOX IMVI > 100 µM | M14 > 100 µM | MDA-MB-231 > 100 µM | MDA-N > 100 µM | MOLT-4 > 100 µM | OVCAR-3 > 100 µM | RPMI-8226 > 100 µM | RXF 393 > 100 µM | SK-MEL-28 > 100 µM | SK-MEL-5 > 100 µM | SK-OV-3 > 100 µM | SN12C > 100 µM | SNB-19 > 100 µM | TK-10 > 100 µM | UACC-257 > 100 µM

c1ccc2/c3[nH]/c(c2c1)=N\c1ccc(cc1)-c1nc2ccc(cc2o1)/N=c1/[nH]/c(c2ccccc12)=N/c1ccc2nc(oc2c1)-c1ccc(cc1)\N=3
inactive: ACHN 16.6 µM | BT-549 > 100 µM | DU-145 23.2 µM | LOX IMVI 29.4 µM | M14 53.8 µM | MDA-MB-231 27 µM | MDA-N 27.4 µM | MOLT-4 14.9 µM | OVCAR-3 26.5 µM | RPMI-8226 18.9 µM | RXF 393 43.2 µM | SK-MEL-28 24.5 µM | SK-MEL-5 12.4 µM | SK-OV-3 72.8 µM | SN12C 20.9 µM | SNB-19 26.1 µM | TK-10 > 100 µM | UACC-257 > 100 µM

COc1nc(C#CC2CCCCC2)nc(OC)n1
inactive: ACHN 4.26 µM | BT-549 3.37 µM | DU-145 3.92 µM | LOX IMVI 1.51 µM | M14 2.38 µM | MDA-MB-231 2.3 µM | MDA-N 3.28 µM | MOLT-4 2.98 µM | Malme-3M 1.95 µM | OVCAR-3 3.22 µM | RPMI-8226 1.51 µM | RXF 393 4.91 µM | SK-MEL-28 8.18 µM | SK-MEL-5 3.06 µM | SK-OV-3 13.1 µM | SN12C 2.2 µM | SNB-19 16.6 µM | UACC-257 11 µM

CCc1c(O)nc(Nc2nc3ccccc3[nH]2)[nH]c1=O
inactive: ACHN > 100 µM | BT-549 > 100 µM | DU-145 > 100 µM | LOX IMVI > 100 µM | M14 > 100 µM | MDA-MB-231 > 100 µM | MDA-N > 100 µM | Malme-3M > 100 µM | OVCAR-3 > 100 µM | RXF 393 > 100 µM | SK-MEL-28 > 100 µM | SK-MEL-5 > 100 µM | SK-OV-3 > 100 µM | SN12C > 100 µM | SNB-19 > 100 µM | TK-10 > 100 µM | UACC-257 > 100 µM

Cc1ccc(/C=C2\CN(C)CC3C2=NN(c2ccccc2)C3c2ccc(C)cc2)cc1 (configuration not stated)
inactive: ACHN > 100 µM | BT-549 > 100 µM | DU-145 > 100 µM | LOX IMVI > 100 µM | M14 57.4 µM | MDA-MB-231 > 100 µM | MDA-N > 100 µM | MOLT-4 36.4 µM | Malme-3M 36.6 µM | OVCAR-3 > 100 µM | RXF 393 34.4 µM | SK-MEL-28 > 100 µM | SK-MEL-5 > 100 µM | SK-OV-3 63.8 µM | SN12C > 100 µM | SNB-19 74.6 µM | TK-10 > 100 µM | UACC-257 > 100 µM

COCOc1cc(OC)ccc1C/C=N/O
inactive: ACHN > 100 µM | BT-549 > 100 µM | DU-145 > 100 µM | LOX IMVI > 100 µM | M14 > 100 µM | MDA-MB-231 > 100 µM | MDA-N > 100 µM | MOLT-4 > 100 µM | Malme-3M > 100 µM | OVCAR-3 > 100 µM | RXF 393 > 100 µM | SK-MEL-28 > 100 µM | SK-MEL-5 > 100 µM | SK-OV-3 > 100 µM | SN12C > 100 µM | SNB-19 > 100 µM | TK-10 > 100 µM | UACC-257 > 100 µM
